Format in all cases: physicochemical
A short description of data set [1]: Maximum absorption wavelength (λmax) and sensitivity (ε) (Table 1). The following applies: at color development. From the text: (§1) Various properties such as the stability of leuco dye solution, the stability after color developed, the maximum absorption wavelength (λmax), the sensitivity (ε) and the solubility in water of typical 14 examples of the urea derivatives of the formula (I) are shown in Table 1.

The nature of data set [2]: Stability of leuco dye solution (Table 1). The arrangement: key: A: stable; B: slightly unstable. The procedure: as §1
(§2) In Table 1, "A" means stable and "B" means slightly unstable in the evaluation of the stability of the leuco dye solution and the stability after color development. The solubility in water is evaluated as .circleincircle. highly soluble, soluble, and X hardly soluble.

The nature of data set [3]: Stability after color development (Table 1). The arrangement: key: A: stable; B: slightly unstable. The procedure: as §1, §2
Data set [4] is described as follows: Solubility in water (Table 1). The procedure:
as §1, §2

Structures can show the parent of a compound that is named as a salt.

This is an account of results in patent US5041636A, “Urea derivatives” (Wako Pure Chemical Industries, Ltd., priority 1986, dated 1991).

For the compound `CNC(=O)N1c2ccc(N(C)C)cc2Sc2cc(N(C)C)ccc21` [(17), reference compound], in data set [1], the λmax is 666 nm. Moreover, the “Stability of leuco dye soln.” value in data set [2] is reported as “B”. Moreover, the “Stability after color developed” value in data set [3] was “B”.
In turn, `CN(C)c1ccc2c(c1)Oc1cc(N(C)C)ccc1N2C(=O)NCC(=O)O` [Compound No. (10), sodium salt of 10-(carboxymethylaminocarbonyl)-3,7-bis(dimethylamino)phenoxazine] registered a λmax in data set [1] of 666 nm. Further, the “Stability of leuco dye soln.” value in data set [2] is “B”. The Solubility in water result in data set [4] is “.circleincircle”. In addition, the “Stability after color developed” value in data set [3] is recorded as “B”.
In the case of `CN(C)c1ccc(N(C(=O)NCCC2CCOCC2)c2ccc(N(C)CO)cc2)cc1` [(6)], the λmax in data set [1] was found to be 730 nm. In addition, the “Stability of leuco dye soln.” value in data set [2] is listed as “A”. Also, the “Stability after color developed” value in data set [3] was “B”.
The compound `CN(C)c1ccc2c(c1)Sc1cc(N(C)CC(=O)O)ccc1N2C(=O)NCC(=O)O` [(14)] had a λmax in data set [1] of 666 nm. For the same compound, the “Stability of leuco dye soln.” value in data set [2] is on record as “B”. The Solubility in water result in data set [4] was “.circleincircle”. For the same compound, the “Stability after color developed” value in data set [3] was “B”.
As to `CCCN(CCC)c1ccc2c(c1)Sc1cc(N(CCC)CCC)ccc1N2C(=O)NCC(=O)O` [(12)], the λmax in data set [1] worked out at 666 nm. In data set [2], the “Stability of leuco dye soln.” value is recorded as “A”. Moreover, the Solubility in water result in data set [4] was “.circleincircle”. Further, in data set [3], the “Stability after color developed” value is recorded as “B”.
In the case of `CN(C)c1ccc2c(c1)Sc1cc(N(C)C)ccc1N2C(=O)NCC(=O)O` [Compound No. (9), sodium salt of 10-(carboxymethylaminocarbonyl)-3,7-bis(dimethylamino)phenothiazine], in data set [1], the λmax was determined as 666 nm. Besides, the “Stability of leuco dye soln.” value in data set [2] is reported as “B”. Also, in data set [4], the Solubility in water entry is “.circleincircle”. Moreover, the “Stability after color developed” value in data set [3] is “B”.
In the case of `CCCCNC(=O)N(c1ccc(N(C)C)cc1)c1ccc(N(C)C)cc1` [(16), reference compound], the λmax in data set [1] worked out at 730 nm. Also, in data set [2], the “Stability of leuco dye soln.” value is “A”. Besides, the “Stability after color developed” value in data set [3] is “B”.
Take `CN(C)c1ccc(N(C(=O)Nc2ccc(S(=O)(=O)O)cc2)c2ccc(N(C)C)cc2)cc1` [Compound No. (2), sodium salt of N, N-bis(4-dimethylaminophenyl)-N'-(4-sulfophenyl)urea]: the λmax in data set [1] was 730 nm. Further, in data set [2], the “Stability of leuco dye soln.” value is on record as “A”. For the same compound, the Solubility in water result in data set [4] was “.circleincircle”. The “Stability after color developed” value in data set [3] is listed as “B”.
As for `CN(C)c1ccc2c(c1)Oc1cc(N(C)CC(=O)O)ccc1N2C(=O)NCC(=O)O` [(13)], in data set [1], the λmax was found to be 666 nm. In addition, in data set [2], the “Stability of leuco dye soln.” value was “B”. For the same compound, the Solubility in water entry in data set [4] is “.circleincircle”. Further, in data set [3], the “Stability after color developed” value is reported as “B”.
Turning to `CN(C)c1ccc(N(C(=O)NCC(=O)O)c2ccc(N(C)C)cc2)cc1` [Compound No. (1), sodium salt of N,N-bis(4-dimethylaminophenyl)-N'-carboxymethylurea], the λmax in data set [1] is 730 nm. Moreover, the “Stability of leuco dye soln.” value in data set [2] is on record as “A”. Further, in data set [4], the Solubility in water entry is recorded as “.circleincircle”. Further, in data set [3], the “Stability after color developed” value is recorded as “B”.
In data set [1], `CNC(=O)N(c1ccc(N(C)C)cc1)c1ccc(N(C)C)cc1` [(15), reference compound] came in with a λmax of 730 nm. In addition, the “Stability of leuco dye soln.” value in data set [2] was “A”. Besides, the “Stability after color developed” value in data set [3] is “B”.
`CCN(CC)c1ccc(N(C(=O)NS(=O)(=O)c2ccc(C)cc2)c2ccc(N(C)C)cc2C)c(C)c1` [Compound No. (7), N-(4-dimethylamino-2-methylphenyl)-N-(4'-diethylamino-2'-methylphenyl)-N'-(4-methylphenylsulfonyl)urea] showed a λmax in data set [1] of 740 nm. For the same compound, in data set [2], the “Stability of leuco dye soln.” value is reported as “A”. For the same compound, the “Stability after color developed” value in data set [3] is given as “A”.
`CCCN(CCC)c1ccc2c(c1)Oc1cc(N(CCC)CCC)ccc1N2C(=O)NCC(=O)O` [(11)] displayed a λmax in data set [1] of 666 nm. The “Stability of leuco dye soln.” value in data set [2] was “A”. The Solubility in water result in data set [4] is recorded as “.circleincircle”. Moreover, the “Stability after color developed” value in data set [3] was “B”.
As to `Cc1ccc(S(=O)(=O)NC(=O)N(c2ccc(N(C)CO)cc2)c2ccc(N3CCCCC3)cc2)cc1` [(5)], the λmax in data set [1] worked out at 730 nm. Moreover, in data set [2], the “Stability of leuco dye soln.” value was “A”. Also, in data set [3], the “Stability after color developed” value was “B”.
